Results published in article PMC11250742, “Preclinical evaluation of CXCR4 peptides for targeted radionuclide therapy in glioblastoma” (EJNMMI Radiopharmacy and Chemistry, 2024).
Where a SMILES comes first, the peptide text is derived from it. Bridges are numbered along the chain shown (N, C = ends). [ ]: non-standard residue; d: D form. The star is where a group is joined. DOTA = O=C(O)CN1CCN(CC(=O)O)CCN(CC(=O)*)CCN(CC(=O)O)CC1; 2Nal = N[C@@H](Cc1ccc2ccccc2c1)C(=O)O; Cit = NC(=O)NCCC[C@H](N)C(=O)O

Molecular target: T1, CXCR4 (Homo sapiens, UniProt P61073)
T1 construct: expressed in transfected cells; host or cells: U87-MG (U87-CXCR4+), kept under blasticidin selection
T1 sequence (P61073 whole entry): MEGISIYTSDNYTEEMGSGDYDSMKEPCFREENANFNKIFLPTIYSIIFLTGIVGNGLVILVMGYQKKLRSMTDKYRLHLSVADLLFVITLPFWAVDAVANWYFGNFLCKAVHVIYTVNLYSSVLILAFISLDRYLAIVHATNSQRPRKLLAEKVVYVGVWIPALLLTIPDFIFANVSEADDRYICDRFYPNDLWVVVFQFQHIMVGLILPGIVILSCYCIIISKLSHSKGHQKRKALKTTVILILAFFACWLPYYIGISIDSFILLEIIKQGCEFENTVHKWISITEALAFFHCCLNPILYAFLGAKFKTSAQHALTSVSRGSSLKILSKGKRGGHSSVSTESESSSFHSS
Experiment: Saturation binding assay on U87-CXCR4 + cells
Conditions: 0.1–1000 nM, 4 h, 37 °C; NSB with 100 µM AMD11070; N = 2
Experimental: In the saturation binding assays, U87-CXCR4 + cells were seeded in 24-well plates and allowed to adhere. The night before the experiment, complete media was replaced with media containing 2% FBS. To determine the total binding, cells were treated with a mixture of each radiolabelled peptide (at final concentrations ranging from 0.1 to 1000 nM, corresponding to activity concentrations ranging from 0.005 to 50 MBq/mL) with 0.2% dimethyl sulfoxide (DMSO, vehicle). Non-specific binding (NSB) was verified by treating cells with a mixture of each radiolabelled peptide with 100 µM of AMD11070, a potent CXCR4 antagonist.
After 4 h of incubation at 37 °C and 5% CO2, the unbound fraction was collected in gamma counter tubes, and the cells were washed twice with PBS. The wash fractions were added to the same gamma counter tubes. Next, cells were lysed by incubation with 1 M NaOH for 30 min at room temperature (RT). After collecting the lysed cell fractions, two washes with 1 M NaOH were performed, and added to the same fractions, corresponding to the total bound fractions.
The activities of all collected fractions were measured in an automated gamma counter. […]
Statistical analyses and data plotting were done using GraphPad Prism 10. […] Statistical significance was evaluated with one-way ANOVA followed by post-hoc comparisons with the untreated cells using Dunnett’s test. […]

**Q.** N=C(N)NCCC[C@@H]1NC(=O)[C@@H]2CSSC[C@H](NC(=O)[C@H](Cc3ccc4ccccc4c3)NC(=O)[C@H](CCCNC(=N)N)NC(=O)[C@H](CCCNC(=N)N)NC(=O)[C@H]3CCCN3C(=O)CNC1=O)C(=O)N[C@@H](Cc1ccc(O)cc1)C(=O)N[C@@H](CCC(N)=O)C(=O)N[C@@H](CCCCNC(=O)CN1CCN(CC(=O)O)CCN(CC(=O)O)CCN(CC(=O)O)CC1)C(=O)N1CCC[C@@H]1C(=O)N1CCC[C@H]1C(=O)N[C@@H](Cc1ccc(O)cc1)C(=O)N[C@@H](CCCNC(=N)N)C(=O)N[C@@H](CCCNC(N)=O)C(=O)N2 [[^177Lu]Lu-DOTA-POL3026, metal not drawn] (cyclo(RR[2Nal]CYQK(DOTA)[dP]PYR[Cit]CRG[dP]); disulfide 4-13) was tested. Which Kd did it give?
**A.** Its Kd is 21.8 nM.
